Test results: ChEMBL document CHEMBL1201862, “PubChem BioAssay data set” (2004)
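Dose response: 5 concentrations. Exposure: 48 h. Format: 96-well plates. Endpoint: linear interpolation; highest concentration if not reached. At the GI50, growth is halved.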 Active and inactive are the calls of the source. Cut-off read from the data, not from the text of the source: active = GI50 up to about 1.1 µM and inactive = higher.

Assays:
Assay in all cases: DTP human tumour cell line panel, 48 h
DLD-1 = test system: DLD-1
DMS-114 = test system: DMS-114
KM-20L2 = test system: KM-20L2
LXFL 529 = test system: LXFL 529
M19-MEL = test system: M19-MEL
SNB-78 = test system: SNB-78
XF498 = test system: XF498
HOP-18 = test system: HOP-18
RXF 631 = test system: RXF 631

Row | SMILES | GI50 (DLD-1) | GI50 (DMS-114) | GI50 (KM-20L2) | GI50 (LXFL 529) | GI50 (M19-MEL) | GI50 (SNB-78) | GI50 (XF498) | GI50 (HOP-18) | GI50 (RXF 631)
1 | COC(=O)N1C=CC2=C(C)C3Nc4ccccc4C3C(C)=C2C1 (configuration not stated) | 1.74 µM (inactive) | 23 µM (inactive) | 0.697 µM (active) | 0.953 µM (active) | 2.78 µM (inactive) | 0.546 µM (active) | 2.48 µM (inactive) | – | –
2 | O=C1c2cccc3cccc(c23)C(=O)N1CCN(CCO)CCO | 30.6 µM (inactive) | – | 21.1 µM (inactive) | 32.3 µM (inactive) | 21.5 µM (inactive) | 42.1 µM (inactive) | 28.5 µM (inactive) | 75 µM (inactive) | 35.8 µM (inactive)
3 | CCOC(=O)COc1ccccc1/C=C1\CCC(CN(C)C)C1=O (configuration not stated) | 3.99 µM (inactive) | 10.3 µM (inactive) | 11.6 µM (inactive) | 2.45 µM (inactive) | 3.18 µM (inactive) | 21.2 µM (inactive) | – | 23.2 µM (inactive) | 17.9 µM (inactive)
4 | CCOC(=O)C1=C(C)NC(=S)NC1c1ccccc1 (configuration not stated) | > 57.9 µM (inactive) | > 39.9 µM (inactive) | > 41.4 µM (inactive) | 76.4 µM (inactive) | > 43.9 µM (inactive) | > 100 µM (inactive) | > 39.4 µM (inactive) | > 35.6 µM (inactive) | > 100 µM (inactive)
5 | CCOc1ccc(NC2=CC(=O)C(=O)c3ccccc32)cc1 | 4.43 µM (inactive) | 1.88 µM (inactive) | 18.7 µM (inactive) | 3.47 µM (inactive) | 0.647 µM (active) | 15.5 µM (inactive) | 2.25 µM (inactive) | 2.6 µM (inactive) | –
6 | Brc1cc2c(cc1C1SCCS1)OCO2 | > 100 µM (inactive) | 37.3 µM (inactive) | > 100 µM (inactive) | > 100 µM (inactive) | – | > 100 µM (inactive) | – | > 100 µM (inactive) | > 100 µM (inactive)
7 | CN(C)CC1(Cc2ccccc2)CCC(Cc2ccccc2)C1=O (configuration not stated) | 2.86 µM (inactive) | 15.8 µM (inactive) | 17.1 µM (inactive) | 2.71 µM (inactive) | 16.5 µM (inactive) | 15.8 µM (inactive) | 21.9 µM (inactive) | 8.47 µM (inactive) | –
8 | CCN(CC)CCCNc1nccc2c(C)c3[nH]c4ccncc4c(=O)c3cc12 | 1.79 µM (inactive) | 0.494 µM (active) | 4.11 µM (inactive) | 1.48 µM (inactive) | – | 2.2 µM (inactive) | 2.46 µM (inactive) | 2.52 µM (inactive) | 1.92 µM (inactive)
9 | CC1(C)C(=O)N(CCCCCCN2C(=O)C(C)(C)c3ccccc32)c2ccccc21 | – | 21.6 µM (inactive) | 37.2 µM (inactive) | 39.1 µM (inactive) | 22.6 µM (inactive) | 96.4 µM (inactive) | 16.5 µM (inactive) | 81.1 µM (inactive) | –
10 | Nc1ccc(C(=O)NN2C(=O)C(Cl)C2c2ccc(O)cc2)cc1 (configuration not stated) | 18.1 µM (inactive) | 13 µM (inactive) | 19.9 µM (inactive) | 17.8 µM (inactive) | 20.1 µM (inactive) | 11.9 µM (inactive) | 14.7 µM (inactive) | – | –
11 | CNC(=O)OCc1nccc2c(C)c3[nH]c4ccc(OC)cc4c3cc12 | 2.99 µM (inactive) | 2.92 µM (inactive) | 3.11 µM (inactive) | 5.74 µM (inactive) | 5.61 µM (inactive) | 16.6 µM (inactive) | 14.1 µM (inactive) | 2.47 µM (inactive) | –
12 | Cn1nc(-c2ccccc2)c(C(=O)/C=C/c2ccc(F)cc2)c(N2CCOCC2)c1=O | 23.1 µM (inactive) | 15.9 µM (inactive) | 15.1 µM (inactive) | 16 µM (inactive) | 18.5 µM (inactive) | – | 19.8 µM (inactive) | 17.3 µM (inactive) | 27.7 µM (inactive)
13 | N#Cc1c2c(c(Cl)n3c1nc1ccccc13)CCCC2 | 10.6 µM (inactive) | 1.86 µM (inactive) | 2.49 µM (inactive) | – | 3.61 µM (inactive) | 3.89 µM (inactive) | 2.14 µM (inactive) | – | –
14 | CCc1cccc(=O)c([O-])c1.CCc1cccc(=O)c([O-])c1.[Bi+3].[Cl-] | 2.91 µM (inactive) | 3.01 µM (inactive) | 10.5 µM (inactive) | 1.71 µM (inactive) | 6.98 µM (inactive) | 7.19 µM (inactive) | 2.38 µM (inactive) | 16.2 µM (inactive) | 4.13 µM (inactive)
15 | Nn1c(=O)n(Cc2ccccc2)n(-c2ccccc2)c1=O | > 100 µM (inactive) | – | – | > 100 µM (inactive) | – | > 100 µM (inactive) | > 100 µM (inactive) | – | –
16 | CC1=CP(=O)(OC(C)C)CC(C)=C1Cl (configuration not stated) | > 100 µM (inactive) | > 100 µM (inactive) | > 100 µM (inactive) | > 100 µM (inactive) | > 100 µM (inactive) | > 100 µM (inactive) | – | – | –
17 | COc1ccc(CN2C(=O)C(Cc3cc(OC)c(OC)c(C)c3OC)NC(=O)/C2=C/c2cc(OC)c(OC)c(C)c2OC)cc1 (configuration not stated) | 33 µM (inactive) | 33.2 µM (inactive) | 25 µM (inactive) | 31.8 µM (inactive) | 19.3 µM (inactive) | – | – | 26.1 µM (inactive) | 43 µM (inactive)
18 | O=c1c2c([nH]c3cc4c(cc13)OCO4)-c1ccccc1C2 | 23.5 µM (inactive) | – | 19 µM (inactive) | 22.7 µM (inactive) | – | 30.5 µM (inactive) | 24.2 µM (inactive) | 24.2 µM (inactive) | –
19 | CC(=O)c1ccc(NC(=O)/C(CC(=O)c2sc(-c3cccnc3)nc2C)=N/NC(N)=O)cc1 | – | > 100 µM (inactive) | > 100 µM (inactive) | 41.4 µM (inactive) | > 100 µM (inactive) | > 100 µM (inactive) | > 100 µM (inactive) | – | –
20 | O=C1C=C(Nc2ccccc2C(=O)CC(=O)C(=O)Nc2cccc(C(F)(F)F)c2)c2ccccc2C1=O | 8.45 µM (inactive) | 13 µM (inactive) | > 100 µM (inactive) | 18.3 µM (inactive) | 2.53 µM (inactive) | > 36.7 µM (inactive) | 26.2 µM (inactive) | 13.2 µM (inactive) | > 100 µM (inactive)
21 | Cc1ccccc1NC(=O)/C(=N/NC(=O)CC#N)C1C(=O)N(c2ccccc2)N=C1N (configuration not stated) | 79.6 µM (inactive) | > 100 µM (inactive) | > 100 µM (inactive) | > 100 µM (inactive) | > 100 µM (inactive) | > 100 µM (inactive) | > 100 µM (inactive) | > 100 µM (inactive) | > 100 µM (inactive)
22 | CCOc1ccccc1NC(=O)CC1SC(Nc2ccc([N+](=O)[O-])cc2)=NC1=O (configuration not stated) | 22.9 µM (inactive) | 13.1 µM (inactive) | 19.4 µM (inactive) | 17.7 µM (inactive) | 25.4 µM (inactive) | 28.8 µM (inactive) | 15.8 µM (inactive) | 17.6 µM (inactive) | –
23 | C=CCN(CC=C)CC(C(C)=O)C(c1ccccc1)c1c(O)c2ccccc2oc1=O (configuration not stated) | > 100 µM (inactive) | > 100 µM (inactive) | 82.8 µM (inactive) | > 100 µM (inactive) | > 100 µM (inactive) | > 100 µM (inactive) | > 100 µM (inactive) | – | –
24 | CN(C)CCNC(=O)c1ccc(Cl)c2c(Nc3ccc(S(=O)(=O)N=C(N)N)cc3)c3ccccc3nc12 | 5.62 µM (inactive) | 0.993 µM (active) | 5.53 µM (inactive) | 3.94 µM (inactive) | 3.86 µM (inactive) | 12.1 µM (inactive) | 4.51 µM (inactive) | – | –
25 | Cc1ccc(C(=O)/C=C2\Nc3c(c(=O)oc4ccccc34)N=C2NC23CC4CC(CC(C4)C2)C3)cc1 | 89.9 µM (inactive) | > 100 µM (inactive) | > 100 µM (inactive) | > 100 µM (inactive) | > 100 µM (inactive) | – | > 100 µM (inactive) | – | –
26 | Cc1c(C(=O)O)oc2ccc([N+](=O)[O-])cc12 | > 100 µM (inactive) | > 100 µM (inactive) | > 100 µM (inactive) | > 100 µM (inactive) | > 100 µM (inactive) | > 100 µM (inactive) | > 100 µM (inactive) | > 100 µM (inactive) | > 100 µM (inactive)
